Experimental data as given in patent publication US20240336657A1, “G-ALPHA-S PEPTIDE INHIBITORS AND USES THEREOF” (The Regents of the University of California, priority 2021, published 2024).
Positions of bridges follow the written chain, without caps; N, C: chain ends. Non-standard residues stand in square brackets, D forms with d. Residues, ends and D or L forms follow the SMILES beside them.

Biological target: Gαs (Homo sapiens, UniProt P63092)
Assay: Adenylyl cyclase activity assay in HEK293 cell membranes, β2AR stimulated by isoproterenol
Format: biochemical
Design: endogenous in cells; host or cells: HEK293 cell membranes
Settings: GTP/GDP 500/50 μM, 2 hours preincubation, 40 μM isoproterenol, read-out: IC50, inhibition of ISO-stimulated Gαs activity (cAMP)
Experimental: We sought to test the efficacy of GN13 in B2-adrenergic receptor (β2AR) mediated second messenger stimulation in cell membranes. Membrane anchored GDP-bound Gαs is inhibited by Gβγ in the resting state. It can undergo GPCR mediated GDP to GTP exchange upon agonist stimulation (Weis and Kobilka, 2018). The presence of GN13 could potentially capture the newly generated GTP-bound Gαs and inhibit its activation (FIG. 17E). To test this idea, we incubated cell membranes prepared from HEK293 cells with GN13 and examined cAMP accumulation with or without stimulation of β2-adrenergic receptor (β2AR) by isoproterenol (ISO).
GN13 inhibition of Gαs proteins in HEK293 cell membranes (FIG. 17F and FIG. 18F).
a. Cell membrane preparation: HEK293cells, GNAS KO HEK293 cells were plated two day before transfection at a density of 1M cells per 10 cm plate. […] The protein concentrations were measured using BCA, and were normalized to 750 μg/mL. […] The cAMP concentrations were measured by the LANCE Ultra cAMP kit. […]
A cAMP standard curve was generated in the same plate using the 50 μM cAMP standard in the kit. […] 10 μL of each diluted sample was mixed with 5 μL of 4× Eu-cAMP tracer and 5 μL of 4× ULight-anti-cAMP in a white, opaque Optiplate-384 microplate, incubated for 1 hour at room temperature, and the time-resolved fluorescence resonance energy transfer (TR-FRET) signals were read on a Spark 20M plate reader. […]

Chain of Gαs (P63092 whole entry): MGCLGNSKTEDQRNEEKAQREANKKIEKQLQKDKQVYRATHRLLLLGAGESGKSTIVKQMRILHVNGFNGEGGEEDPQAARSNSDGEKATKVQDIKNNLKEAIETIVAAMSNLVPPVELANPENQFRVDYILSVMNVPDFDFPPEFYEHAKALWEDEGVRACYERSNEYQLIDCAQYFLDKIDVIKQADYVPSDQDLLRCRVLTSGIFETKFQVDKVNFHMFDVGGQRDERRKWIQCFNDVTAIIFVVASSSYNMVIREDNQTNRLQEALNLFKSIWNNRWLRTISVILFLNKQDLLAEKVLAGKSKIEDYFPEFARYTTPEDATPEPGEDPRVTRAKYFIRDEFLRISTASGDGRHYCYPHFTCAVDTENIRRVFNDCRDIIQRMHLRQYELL

CC[C@H](C)[C@@H]1NC(=O)[C@H](C)NC(=O)[C@H](Cc2ccc(O)cc2)NC(=O)[C@H](C(C)C)NC(=O)[C@H](CO)NC(=O)[C@H](CCC(=O)O)NC(=O)[C@H](Cc2ccccc2)NC(=O)[C@@H](Cc2ccc(O)cc2)NC(=O)CSC[C@@H](C(=O)NCC(N)=O)NC(=O)[C@H](CC(C)C)NC(=O)[C@H]([C@@H](C)O)NC(=O)CNC(=O)[C@H](Cc2c[nH]c3ccccc23)NC1=O [GN13] ({CH2CO}-[dY]FESVYAIWGTLCG-NH2; thioether N-13)
IC50: 12.2 ± 2.51 µM
